The record followed here is patent US8921383B2, “Thiazolopyrimidine compounds” (Hoffmann-La Roche Inc., priority 2011, dated 2014).

In the assay the target is T1, purified recombinant human SYK360-635 (Homo sapiens, UniProt P43405).
T1 construct: truncated construct of Spleen Tyrosine Kinase aa 360-635; GST; made in house
As to the kind of experiment: SYK kinase assay: 33P γATP incorporation into biotinylated peptide substrate, IC50 determination. It is filed as biochemical. Particulars: SYK 0.5 nM, ATP 20 μM, DYE peptide 5 μM, 30° C. 15 min; read-out: IC50 h-syk-gst-sf9-c (inactive-dephosphorylated). As for the experimental part:
Determination of IC50 of Spleen Tyrosine Kinase (SYK) Inhibition:
SYK kinase assay is a standard kinase assay adapted to a 96 well plate format. This assay is performed in 96-well format for IC50 determination with […] which represented 10 half log dilutions and a 40 μL reaction volume. The assay measures the incorporation of radiolabeled ^33P γATP into an N-terminally biotinylated peptide substrate, derived from naturally occurring phosphoacceptor consensus sequence (Biotin-11aa DY*E). Phosphorylated products were detected upon termination of reactions with EDTA and the addition of Streptavidin coated beads.
Assay plates: 96-well MultiScreen 0.65 um filter plates (Millipore Cat. No.: MADVNOB10)
BSA: Bovine Serum Albumin Fraction V, fatty acid free (Roche Diagnostics GmbH, Cat. No. 9100221) diluted to a final concentration of 0.1%
Assay Dilution Buffer (ADB): 50 mM HEPES, 0.1 mM EGTA, 0.1 mM Na Vanadate, 0.1 mM β-glycerophosphate, 10 mM MgCl2, 1 mM DTT, 0.1% BSA, pH 7.5
Bead wash buffer: 10 g/L PBS (Phosphate buffered saline) with 2M NaCl+1% phosphoric acid.
DMSO and the mixture was incubated for 10 min at RT.
The kinase reaction was initiated by the addition of 10 μL 4× substrate cocktail containing the DYE peptide substrate [0 or 5 μM], ATP [20 μM] and ^33PγATP [2 μCi/r×n]. After incubation at 30° C. for 15 min, the reaction was terminated by the transfer of 25 μL of the reaction sample to a 96 well 0.65 μm Millipore MADVNOB membrane/plate containing 200 μL 5 mM EDTA and 20% Streptavidine coated beads in PBS.
After the last wash membrane/plates were transferred to an adaptor plate, heat dried for 15 min at 60° C., and 50 μL scintillation cocktail was added to each well and 4 h later the amount of radioactivity was counted in a top counter.

A word on the IC50: it is the concentration at which inhibition is half-maximal. Consider `COc1ccc(Nc2nc(-c3ccc(C(=O)NCCN(C)C)cc3)nc3scnc23)cc1OC` [Compound I-66, 4-(7-(3,4-Dimethoxyphenylamino)thiazolo[5,4-d]pyrimidin-5-yl)-N-(2-(dimethylamino)ethyl)benzamide], for which the IC50 was found to be 278 nM.

Regarding `COc1ccc(Nc2nc(-c3cccc(C(N)=O)c3)nc3scnc23)cc1OC` [Compound I-68, 3-[7-(3,4-Dimethoxy-phenylamino)-thiazolo[5,4-d]pyrimidin-5-yl]-benzamide], the IC50 worked out at 233 nM.
